The source made the active and inactive calls.
Legend:
[1] = blockers of FN fibrillogenesis by fibroblasts – AH1F cells, Alexa488-FN fluorescence, cherry-picks, dose response (AID 1035475); assay type: functional, cell-based
[2] = viability loss in A549 lung cancer cells – cell-based, cherry-picks, […], cytotoxicity control, dose response (AID 1053119); assay type: functional
[3] = viability loss in HEK293T cells – cell-based, CellTiter-Glo luminescence, dry powder, set 6, cytotoxicity control, dose response (AID 651949); assay type: functional; conditions: HEK293
[4] = target: Potassium channel subfamily K member 3 (Homo sapiens, UniProt O14649); test: inhibition of human KCNK3 channel flux – CHO cells, FluxOR thallium flux, SAR follow-up (AID 652212); assay type: functional
[5] = target: Potassium channel subfamily K member 9 (Homo sapiens, UniProt Q9NPC2); test: KCNK9 flux blockade, concentration-response – cell-based, FluxOR thallium flux, selectivity assay for TASK1 inhibitor project, SAR follow-up (AID 652211); assay type: functional;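 further: potency is for inhibitors of the channel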
[6] = A Cell-Based Confirmatory Screen for Compounds that Inhibit VEEV, TC-83 (6).; assay type: functional
[7] = A Cell-Based Confirmatory Screen for Compounds that Inhibit VEEV, TC-83 (8).; assay type: functional
[8] = Luminescence Cell-Based Dose Response HTS to Identify Activators of Luciferase Translation or Activity in H4 […] Cells. [Related pubchem assays: 1829 (Project Summary), 1814 (Primary HTS)]; assay type: functional
H4 = test: Luminescence Cell-Based Dose Response HTS to Identify Activators of 5'UTR Stem-Loop Driven Prion Protein mRNA Translation in H4 Neuroglioblastoma Cells. [Related pubchem assays: 1829 (Project Summary), 1814 (Primary HTS)]; assay type: functional; conditions: Homo sapiens
[9] = target: T1, Trace amine-associated receptor 1 (Homo sapiens, UniProt Q96RJ0); test: Fluorescence-based cell-based high throughput dose response assay to identify antagonists of the human trace amine associated receptor 1 (TAAR1).; assay type: functional
T1 sequence (Q96RJ0 whole entry): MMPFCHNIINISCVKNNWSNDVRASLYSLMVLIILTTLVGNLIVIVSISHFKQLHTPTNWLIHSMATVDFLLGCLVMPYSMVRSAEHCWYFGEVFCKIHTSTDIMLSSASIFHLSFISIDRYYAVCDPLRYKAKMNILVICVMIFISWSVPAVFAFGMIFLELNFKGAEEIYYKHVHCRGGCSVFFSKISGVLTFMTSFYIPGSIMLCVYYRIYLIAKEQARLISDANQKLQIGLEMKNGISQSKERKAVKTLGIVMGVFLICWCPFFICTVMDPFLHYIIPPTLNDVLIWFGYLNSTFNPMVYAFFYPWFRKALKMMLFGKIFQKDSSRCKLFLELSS

[10] = Counterscreen for antagonists of the human trace amine associated receptor 1 (hTAAR1): Fluorescence-based cell-based high throughput dose response assay to identify nonselective Ga16 antagonists.; assay type: functional
[11] = Luminescence Cell-Based Dose Response to Identify Activators of 5'UTR Stem-Loop Driven Prion Protein mRNA Translation in H4-C Neuroglioblastoma Cells. [Related pubchem assays: 1829 (Project Summary), 1814 (Primary HTS)]; assay type: functional
[12] = Luminescence Cell-Based Dose Confirmation to Identify Activators of 5'UTR Stem-Loop Driven Alpha-Synuclein mRNA Translation in H4 Neuroglioblastoma Cells. [Related pubchem assays: 1829 (Project Summary), 1814 (Primary HTS)]; assay type: functional
[13] = target: T1, Trace amine-associated receptor 1; test: Counterscreen for antagonists of the human trace amine associated receptor 1 (hTAAR1): Fluorescence-based cell-based high throughput dose response assay to identify TAAR1 Agonists.; assay type: functional
[14] = Counterscreen for […] of the human trace amine associated receptor 1 (TAAR1): Fluorescence-based cell-based high throughput dose response assay to identify nonselective Ga16 agonists.; assay type: functional
[15] = Luminescence Cell-Based Dose Response to Identify Activators of Luciferase Translation or Activity in H4-C Neuroglioblastoma Cells. [Related pubchem assays: 1829 (Project Summary), 1814 (Primary HTS)]; assay type: functional
[16] = general cell-killing toxicity readout – plate reader, dry powder samples, cytotoxicity control for PAX8 inhibitor project, dose response (AID 743021); assay type: functional, cell-based
[17] = OVCAR-3 cell viability loss – plate reader, dry powder samples, PAX8 inhibitor project, dose response (AID 743044); assay type: functional, cell-based
Paired box protein Pax-8 = Paired box protein Pax-8 (Homo sapiens, UniProt Q06710); test: PAX8 transcriptional activity inhibition in RMG-I – RMG-I cells, luciferase, cherry-pick, dose response (AID 687027); assay type: functional, cell-based;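 further: luciferase reporter driven by Pax8 target thyroperoxidase promoter measured by SteadyGlo luminescence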
[18] = OVCAR8 cell viability loss – plate reader, dry powder samples, PAX8 project, dose response (AID 743197); assay type: functional, cell-based; conditions: OVCAR-8
[19] = target: T2, Zinc finger protein mex-5 (Caenorhabditis elegans, UniProt Q9XUB2); test: potency of MEX-5 RNA-binding blockers – biochemical, C. elegans, fluorescence polarization, dose response (AID 1960)
T2 sequence (Q9XUB2 whole entry): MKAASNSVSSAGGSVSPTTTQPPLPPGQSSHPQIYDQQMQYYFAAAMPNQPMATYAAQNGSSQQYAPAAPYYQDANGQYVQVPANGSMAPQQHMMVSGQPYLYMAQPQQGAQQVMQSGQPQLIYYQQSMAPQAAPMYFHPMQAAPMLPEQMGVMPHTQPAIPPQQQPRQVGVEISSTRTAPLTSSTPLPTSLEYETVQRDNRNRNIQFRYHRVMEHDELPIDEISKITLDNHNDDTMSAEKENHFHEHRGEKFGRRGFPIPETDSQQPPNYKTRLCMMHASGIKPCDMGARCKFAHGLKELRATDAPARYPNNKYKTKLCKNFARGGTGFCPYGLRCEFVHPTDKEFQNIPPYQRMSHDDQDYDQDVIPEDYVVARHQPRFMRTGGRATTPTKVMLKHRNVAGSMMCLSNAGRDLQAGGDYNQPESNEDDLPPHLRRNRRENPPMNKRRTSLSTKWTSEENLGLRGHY

[20] = target: T3, RNA-binding protein pos-1 (Caenorhabditis elegans, UniProt G5EF15); test: disruptors of C. elegans POS-1 RNA interaction – biochemical, fluorescence polarization, dose response (AID 1964);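 further: purified POS-1 fused to maltose binding protein made in E. coli; potency of compounds blocking POS-1 binding to fluorescent RNA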
T3 sequence (G5EF15 whole entry): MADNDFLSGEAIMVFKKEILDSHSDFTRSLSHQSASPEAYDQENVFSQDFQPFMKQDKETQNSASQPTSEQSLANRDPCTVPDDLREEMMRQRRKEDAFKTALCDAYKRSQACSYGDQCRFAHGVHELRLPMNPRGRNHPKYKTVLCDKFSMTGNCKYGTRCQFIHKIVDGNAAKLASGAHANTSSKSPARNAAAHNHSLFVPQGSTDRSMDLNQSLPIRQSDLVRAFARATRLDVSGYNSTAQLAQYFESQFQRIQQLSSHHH

cells [21] = test: cells
[22] = HepG2 cell viability loss – cherry-picked samples, cytotoxicity control, dose response (AID 1053183); assay type: functional, cell-based
[23] = P. falciparum Dd2 growth inhibitors, dose response, SYBR Green, cherry-picked samples (AID 1159567); assay type: functional, cell-based
[24] = toxicity to human hepatoma HepG2 cells – cell-based, cherry-picked samples, cytotoxicity control, dose response (AID 1159577); assay type: functional
[25] = HGIII-sPLA2 enzyme inhibition potency – biochemical, QFRET, IC50, dose response (AID 743457);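 further: green fluorescence rise as the enzyme cleaves BODIPY PC-A2 in liposomes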
[26] = LMP1-induced NF-kB luciferase signal inhibition – cell-based, EBV LMP1, dry powder, set 2, dose response (AID 624361); assay type: functional
[27] = TNFa-induced NF-kB reporter signal decrease – HEK293 LMP1 reporter cells, dry powder, set 2, selectivity assay for EBV LMP1 NF-kB inhibitor project, dose response (AID 624369); assay type: functional
[28] = inhibitors of EBV LMP1 NF-kappaB signaling – cell-based, luciferase reporter, luminescence, dry powder, set 2, dose response (AID 624376); assay type: functional
[29] = cytotoxicity in HEK293 background cells – cell-based, dry powder, set 2, counter-screen for EBV LMP1 inhibitor project, dose response (AID 624374); assay type: functional
[30] = inhibition of ADAM10 peptide cleavage – biochemical, FRET peptide substrate, recombinant human ADAM10, selectivity assay for ADAM17 exosite inhibitor project, dose response (AID 743259);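 further: ADAM10 enzyme cleaving a FRET peptide substrate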
[31] = target: Disintegrin and metalloproteinase domain-containing protein 17 (Homo sapiens, UniProt P78536); test: exosite inhibitors of ADAM17, dose response, biochemical (AID 743260)
cells [32] = conditions: A549
[33] = target: T4, DNA repair and recombination protein RAD54-like (Homo sapiens, UniProt Q92698); test: RAD54 Holliday junction migration blockers – biochemical, fluorescence, cherry-picked samples, dose series, confirmation (AID 651657); assay type: functional
T4 sequence (Q92698 whole entry): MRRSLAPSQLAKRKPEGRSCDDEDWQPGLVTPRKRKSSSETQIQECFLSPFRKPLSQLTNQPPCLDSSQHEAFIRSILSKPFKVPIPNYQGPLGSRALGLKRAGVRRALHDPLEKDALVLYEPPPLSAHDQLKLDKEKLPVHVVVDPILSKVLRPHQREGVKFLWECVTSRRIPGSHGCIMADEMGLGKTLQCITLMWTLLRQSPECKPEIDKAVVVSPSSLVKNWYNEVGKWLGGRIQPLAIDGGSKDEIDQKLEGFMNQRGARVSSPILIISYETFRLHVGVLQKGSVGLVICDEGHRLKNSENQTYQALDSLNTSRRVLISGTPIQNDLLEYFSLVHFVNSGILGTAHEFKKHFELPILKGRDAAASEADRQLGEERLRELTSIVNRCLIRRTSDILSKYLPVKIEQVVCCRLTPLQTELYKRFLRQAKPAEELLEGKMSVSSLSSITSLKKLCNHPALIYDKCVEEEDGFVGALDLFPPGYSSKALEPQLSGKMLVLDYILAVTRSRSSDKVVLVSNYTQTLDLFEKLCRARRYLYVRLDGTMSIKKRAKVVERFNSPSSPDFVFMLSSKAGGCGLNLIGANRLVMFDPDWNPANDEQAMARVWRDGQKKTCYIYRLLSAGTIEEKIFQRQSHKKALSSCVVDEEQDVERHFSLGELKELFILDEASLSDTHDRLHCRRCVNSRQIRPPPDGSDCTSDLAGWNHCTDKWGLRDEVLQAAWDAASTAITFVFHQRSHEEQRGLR

[34] = target: Glucose-6-phosphate 1-dehydrogenase (Homo sapiens, UniProt P11413); test: inhibition of Homo sapiens G6PD, dose series – biochemical, fluorescence, selectivity assay for P. falciparum G6PD inhibitor project, dose response (AID 504792); assay type: functional
[35] = target: 1-phosphatidylinositol 4,5-bisphosphate phosphodiesterase beta-3 (Homo sapiens, UniProt Q01970); test: Fluorescence-based biochemical high throughput dose response assay to identify inhibitors of phospholipase C isozymes (PLC-B3).
[36] = target: 1-phosphatidylinositol 4,5-bisphosphate phosphodiesterase gamma-1 (Homo sapiens, UniProt P19174); test: Counterscreen for inhibitors of phospholipase C isozymes (PLC-B3): Fluorescence-based biochemical high throughput dose response assay to identify inhibitors of phospholipase C isozymes (PLC-gamma1).
[37] = target: Metabotropic glutamate receptor 3 (Rattus norvegicus, UniProt P31422); test: inhibitors of rat mGlu3 Galpha15 signaling – TREx293 cells, calcium flux, mGlu3 NAM project, dose response (AID 651840); assay type: functional
Chain of Metabotropic glutamate receptor 3 (P31422 whole entry): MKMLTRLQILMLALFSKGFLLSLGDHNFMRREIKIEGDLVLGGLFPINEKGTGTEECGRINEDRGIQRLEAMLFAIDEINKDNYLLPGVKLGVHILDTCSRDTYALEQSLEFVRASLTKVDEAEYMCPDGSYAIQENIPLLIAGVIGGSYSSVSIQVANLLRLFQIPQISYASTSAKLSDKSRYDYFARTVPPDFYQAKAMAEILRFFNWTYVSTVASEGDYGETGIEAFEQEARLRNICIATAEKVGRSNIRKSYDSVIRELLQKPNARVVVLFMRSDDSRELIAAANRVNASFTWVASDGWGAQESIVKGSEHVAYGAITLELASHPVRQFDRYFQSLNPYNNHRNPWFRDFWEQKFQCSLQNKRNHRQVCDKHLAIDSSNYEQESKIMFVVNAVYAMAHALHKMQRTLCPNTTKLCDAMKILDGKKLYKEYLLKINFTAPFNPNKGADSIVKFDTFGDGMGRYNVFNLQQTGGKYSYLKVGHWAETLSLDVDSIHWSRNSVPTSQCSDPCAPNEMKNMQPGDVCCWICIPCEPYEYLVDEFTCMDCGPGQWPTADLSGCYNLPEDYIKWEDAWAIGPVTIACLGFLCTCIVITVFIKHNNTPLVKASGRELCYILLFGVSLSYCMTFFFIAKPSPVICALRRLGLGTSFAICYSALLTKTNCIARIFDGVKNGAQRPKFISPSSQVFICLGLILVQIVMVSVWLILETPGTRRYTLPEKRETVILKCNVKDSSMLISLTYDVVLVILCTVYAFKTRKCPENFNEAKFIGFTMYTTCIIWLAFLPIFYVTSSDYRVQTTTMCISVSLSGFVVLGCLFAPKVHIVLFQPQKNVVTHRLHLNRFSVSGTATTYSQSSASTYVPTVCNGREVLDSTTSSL

Chain of Potassium channel subfamily K member 9 (Q9NPC2 whole entry): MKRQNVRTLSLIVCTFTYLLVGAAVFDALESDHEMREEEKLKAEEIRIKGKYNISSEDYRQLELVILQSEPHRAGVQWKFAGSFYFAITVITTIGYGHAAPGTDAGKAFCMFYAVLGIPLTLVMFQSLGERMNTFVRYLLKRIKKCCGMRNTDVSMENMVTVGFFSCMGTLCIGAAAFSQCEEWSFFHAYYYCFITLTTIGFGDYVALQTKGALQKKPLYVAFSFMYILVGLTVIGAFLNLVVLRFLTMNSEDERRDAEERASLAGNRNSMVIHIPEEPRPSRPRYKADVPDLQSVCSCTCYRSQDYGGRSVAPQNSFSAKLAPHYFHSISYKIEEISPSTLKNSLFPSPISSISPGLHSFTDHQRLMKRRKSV
Chain of Paired box protein Pax-8 (Q06710 whole entry): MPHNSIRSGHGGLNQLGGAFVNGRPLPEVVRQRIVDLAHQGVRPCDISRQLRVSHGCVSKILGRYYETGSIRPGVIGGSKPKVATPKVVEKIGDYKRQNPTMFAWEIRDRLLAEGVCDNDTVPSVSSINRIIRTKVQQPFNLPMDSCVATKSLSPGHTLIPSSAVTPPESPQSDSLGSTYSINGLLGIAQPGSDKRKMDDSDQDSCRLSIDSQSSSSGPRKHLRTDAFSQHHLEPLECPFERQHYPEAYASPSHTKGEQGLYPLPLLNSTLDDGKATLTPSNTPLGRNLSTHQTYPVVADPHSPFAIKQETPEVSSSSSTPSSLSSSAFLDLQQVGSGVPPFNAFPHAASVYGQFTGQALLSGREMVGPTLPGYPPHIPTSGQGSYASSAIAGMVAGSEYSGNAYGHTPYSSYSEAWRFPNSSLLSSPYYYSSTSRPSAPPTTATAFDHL
Chain of Disintegrin and metalloproteinase domain-containing protein 17 (P78536 whole entry, the tested form may be a part): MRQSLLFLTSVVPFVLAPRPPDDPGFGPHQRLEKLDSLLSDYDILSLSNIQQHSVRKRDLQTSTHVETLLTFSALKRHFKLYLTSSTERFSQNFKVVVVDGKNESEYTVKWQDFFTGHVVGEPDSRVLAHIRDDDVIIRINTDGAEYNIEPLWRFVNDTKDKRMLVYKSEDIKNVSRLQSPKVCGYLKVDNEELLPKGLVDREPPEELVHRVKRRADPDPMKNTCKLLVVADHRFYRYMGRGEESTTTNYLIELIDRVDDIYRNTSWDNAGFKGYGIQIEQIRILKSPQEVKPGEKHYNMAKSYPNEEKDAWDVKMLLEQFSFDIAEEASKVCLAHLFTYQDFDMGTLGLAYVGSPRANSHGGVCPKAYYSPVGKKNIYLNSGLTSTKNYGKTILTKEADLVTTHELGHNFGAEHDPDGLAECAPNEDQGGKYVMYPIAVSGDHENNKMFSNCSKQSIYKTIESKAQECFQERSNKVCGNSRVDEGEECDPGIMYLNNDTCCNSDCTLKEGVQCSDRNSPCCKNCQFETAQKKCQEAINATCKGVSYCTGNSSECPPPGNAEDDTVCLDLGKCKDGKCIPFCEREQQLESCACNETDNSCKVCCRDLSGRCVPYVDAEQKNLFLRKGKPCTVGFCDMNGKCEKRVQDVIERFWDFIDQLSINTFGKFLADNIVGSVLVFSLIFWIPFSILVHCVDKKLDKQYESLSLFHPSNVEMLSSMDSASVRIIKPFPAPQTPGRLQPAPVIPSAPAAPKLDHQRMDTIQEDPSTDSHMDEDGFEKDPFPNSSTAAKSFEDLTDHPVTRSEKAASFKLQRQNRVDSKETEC
Chain of 1-phosphatidylinositol 4,5-bisphosphate phosphodiesterase beta-3 (Q01970 whole entry): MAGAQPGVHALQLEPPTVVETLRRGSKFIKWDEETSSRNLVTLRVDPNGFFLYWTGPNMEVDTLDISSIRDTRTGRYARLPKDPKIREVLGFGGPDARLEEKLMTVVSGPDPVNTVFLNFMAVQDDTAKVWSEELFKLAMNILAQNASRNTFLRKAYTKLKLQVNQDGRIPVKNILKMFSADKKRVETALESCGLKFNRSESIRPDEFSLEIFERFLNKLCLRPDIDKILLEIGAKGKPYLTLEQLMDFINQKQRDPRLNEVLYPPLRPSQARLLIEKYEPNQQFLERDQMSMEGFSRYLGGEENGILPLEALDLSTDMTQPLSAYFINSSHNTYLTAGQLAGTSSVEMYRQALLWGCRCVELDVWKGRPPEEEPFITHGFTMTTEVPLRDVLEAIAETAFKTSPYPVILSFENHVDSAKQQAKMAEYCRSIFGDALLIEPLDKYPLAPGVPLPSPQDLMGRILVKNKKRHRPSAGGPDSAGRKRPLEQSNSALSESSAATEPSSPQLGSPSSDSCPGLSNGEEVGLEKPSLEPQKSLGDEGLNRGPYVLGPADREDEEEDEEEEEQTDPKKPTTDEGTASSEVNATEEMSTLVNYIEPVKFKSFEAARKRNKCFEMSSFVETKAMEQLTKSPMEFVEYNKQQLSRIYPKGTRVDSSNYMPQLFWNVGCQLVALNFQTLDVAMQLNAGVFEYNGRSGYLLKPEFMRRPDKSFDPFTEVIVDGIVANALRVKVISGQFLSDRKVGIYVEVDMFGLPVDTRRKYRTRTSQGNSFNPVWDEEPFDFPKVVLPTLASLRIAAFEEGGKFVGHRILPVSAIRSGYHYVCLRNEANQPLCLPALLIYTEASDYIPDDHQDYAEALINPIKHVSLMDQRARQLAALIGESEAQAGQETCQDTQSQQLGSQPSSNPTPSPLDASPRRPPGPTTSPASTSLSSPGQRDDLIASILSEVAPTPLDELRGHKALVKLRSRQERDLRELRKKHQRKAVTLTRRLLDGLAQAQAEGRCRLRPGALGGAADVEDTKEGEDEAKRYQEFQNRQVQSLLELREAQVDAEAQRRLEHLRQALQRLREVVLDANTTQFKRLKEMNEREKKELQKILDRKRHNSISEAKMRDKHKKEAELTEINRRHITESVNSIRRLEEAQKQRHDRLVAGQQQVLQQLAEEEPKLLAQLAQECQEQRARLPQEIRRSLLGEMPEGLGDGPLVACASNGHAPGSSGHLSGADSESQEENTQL
Chain of Glucose-6-phosphate 1-dehydrogenase (P11413 whole entry): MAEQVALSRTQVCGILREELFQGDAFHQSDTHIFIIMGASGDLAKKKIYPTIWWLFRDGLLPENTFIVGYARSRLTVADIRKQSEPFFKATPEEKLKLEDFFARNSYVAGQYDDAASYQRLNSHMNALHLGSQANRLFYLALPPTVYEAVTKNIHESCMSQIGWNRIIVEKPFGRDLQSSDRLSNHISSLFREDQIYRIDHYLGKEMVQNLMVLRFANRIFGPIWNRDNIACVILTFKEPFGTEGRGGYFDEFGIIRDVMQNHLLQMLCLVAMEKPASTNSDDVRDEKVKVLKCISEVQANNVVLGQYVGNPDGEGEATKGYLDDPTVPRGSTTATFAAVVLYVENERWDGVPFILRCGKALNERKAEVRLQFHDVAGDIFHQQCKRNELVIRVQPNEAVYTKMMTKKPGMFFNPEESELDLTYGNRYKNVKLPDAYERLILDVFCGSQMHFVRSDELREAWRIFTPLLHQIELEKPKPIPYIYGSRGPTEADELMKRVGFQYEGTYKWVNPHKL
Chain of Potassium channel subfamily K member 3 (O14649 whole entry): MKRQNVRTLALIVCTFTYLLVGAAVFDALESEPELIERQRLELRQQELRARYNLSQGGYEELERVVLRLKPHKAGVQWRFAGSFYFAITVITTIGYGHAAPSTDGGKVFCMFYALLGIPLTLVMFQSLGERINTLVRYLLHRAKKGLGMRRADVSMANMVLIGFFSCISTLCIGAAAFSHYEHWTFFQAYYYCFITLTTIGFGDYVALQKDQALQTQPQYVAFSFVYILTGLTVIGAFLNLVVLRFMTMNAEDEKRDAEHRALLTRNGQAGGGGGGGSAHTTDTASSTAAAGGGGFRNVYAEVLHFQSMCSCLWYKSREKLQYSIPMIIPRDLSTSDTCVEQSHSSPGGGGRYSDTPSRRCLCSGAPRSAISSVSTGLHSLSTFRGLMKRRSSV

CC(C)(C)[S@+]([O-])N1Cc2cc(C(=O)NCc3ccccc3F)nc(-c3cccc(-c4cncnc4)c3)c2[C@@H]1CCO
AC50 [1]: 50.8 µM (active) | AC50 [2]: > 52 µM (inactive)

COc1ccc(-c2nnc(SCc3ccc(Cl)cc3)o2)cc1
AC50 [3]: > 52 µM (inactive)

COc1ccccc1NC(=O)c1cccc(NC(=O)C2CCCCC2)c1
IC50 [4]: 0.086 µM (active) | IC50 [5]: 2.16 µM (active)

O=c1c2cc([N+](=O)[O-])ccc2nc(CN2CCNCC2)n1-c1ccsc1
IC50 [6]: 1.74 µM (active) | IC50 [7]: 1.74 µM (active)

Cc1cc(/C=C(\C#N)C(=O)NCc2cccs2)c(C)n1-c1ccccc1F
EC50 [8]: < 0.1 µM (active) | EC50 (H4): 61 µM (active) | IC50 [9]: 3.75 µM (active) | IC50 [10]: > 29.9 µM (inactive) | EC50 [11]: 0.952 µM (active) | EC50 [12]: 0.472 µM (active) | EC50 [13]: > 29.9 µM (inactive) | EC50 [14]: > 29.9 µM (inactive) | EC50 [15]: 0.225 µM (active)

C[C@@H]1CN([C@H](C)CO)C(=O)c2cc(NS(=O)(=O)c3ccc(F)cc3)ccc2O[C@@H](C)CCCCO[C@@H]1CN(C)Cc1ccccc1
AC50 [16]: 2.88 µM (active) | AC50 [17]: 21.1 µM (active) | AC50 (Paired box protein Pax-8): 7.31 µM (active) | AC50 [18]: 39.4 µM (active)

CCn1c(=N)c(S(=O)(=O)c2ccccc2)cc2c(=O)n3ccccc3nc21
EC50 [19]: > 300 µM (not active) | EC50 [20]: > 300 µM (not active) | AC50 (cells [21]): 1.01 µM (active)

COc1cc(CN2C[C@@H]3N[C@H](C2)[C@H]3c2ccc(-c3ccc(C#N)cc3)cc2)cc(OC)c1
AC50 [22]: 24.3 µM (active) | AC50 [23]: 1.33 µM (active) | AC50 [24]: 8.15 µM (active)

CCCCCC(=O)NNC(=S)NC(=O)c1ccccc1[N+](=O)[O-]
IC50 [25]: > 122 µM (inactive)

COc1cccc(C(=O)Nc2ccc3c(c2)C(=O)N(C)C[C@H](OC)[C@@H](C)CN(CCc2ccccc2)[C@@H](C)CO3)c1
AbsAC35 [26]: 44.38 µM | AbsAC35 [27]: 55.16 µM | AbsAC35 [28]: 39.75 µM | AbsAC35 [29]: 50.41 µM

COC(=O)c1c(C)n(-c2ccc(OC)cc2)c2ccc(O)cc12
IC50 [30]: > 69.5 µM (inactive) | IC50 [31]: > 69.5 µM (inactive)

Cc1nc2ccccc2c2oc(C(=O)NCCCN3CCC(C)CC3)cc12
AC50 (cells [32]): > 52 µM (inactive) | AC50 [33]: 36.5 µM (active)

Cn1cc(S(=O)(=O)CC(=O)N2CCc3ccccc32)c2ccccc21
IC50 [34]: > 80 µM (inactive) | IC50 [35]: > 122 µM (inactive) | IC50 [36]: > 122 µM (inactive)

COc1ccc(C#Cc2ccc(C(=O)N3CCC[C@@H](O)C3)cc2F)cc1
IC50 [37]: 0.402 µM

Reference: ChEMBL document CHEMBL1201862, “PubChem BioAssay data set” (2004)
